# Reference: patent US10364227B2, “Therapeutic compounds” (ARIZONA BOARD OF REGENTS ON BEHALF OF ARIZONA STATE …, priority 2015, dated 2019)
# Experiment: not given
# Conditions: calculated value, James et al. (2005) J Biol. Chem. 280, 21295; cited from earlier work
row,Structure (SMILES),calculated octanol-water partition coefficient
1,COC1=C(OC)C(=O)C(C/C=C(\C)CC/C=C(\C)CC/C=C(\C)CC/C=C(\C)CC/C=C(\C)CC/C=C(\C)CC/C=C(\C)CC/C=C(\C)CC/C=C(\C)CCC=C(C)C)=C(C)C1=O [coenzyme Q10],> 10^20

# Experiment: not given
# Conditions: not given
row,melting point [°C],Structure (SMILES)
1,75 to 76,"[2H]C(CCCCCCCCCCCCCCC)c1nc(N(C([2H])([2H])[2H])C([2H])([2H])[2H])nc(OC([2H])([2H])[2H])c1O (stereo not drawn) [Compound 2, 2-(N,N-dimethylamino-d6)-4-(1-hexadecyl-d1)-6-(methoxy-d3)-pyrimidin-5-ol]"
2,59 to 60,"CCCCCCCCCCCCCCCCc1nc(N2CCC2)nc(OC)c1O [Compound 8, 2-(Azetidin-1-yl)-4-methoxy-6-hexadecylpyrimidin-5-ol]"
3,79 to 80,"CCCCCCCCCCCCCCCCc1nc(N2CCC2)nc(OCC)c1O [Compound 9, 2-(Azetidin-1-yl)-4-ethoxy-6-hexadecylpyrimidin-5-ol]"
4,83 to 85,"CCCCCCCCCCCCCCCOc1nc(N2CCC2)nc(C)c1O [Compound 11, 2-(Azetidin-1-yl)-4-methyl-6-(pentadecyloxy)pyrimidin-5-ol]"

row,Structure (SMILES),melting point [°C]
1,"[2H]C([2H])([2H])N(c1nc(CCCCCCCCCCCCCCCC)c(O)c(OC2CCC2)n1)C([2H])([2H])[2H] [Compound 13, 4-Cyclobutoxy-2-(N,N-dimethylamino)-6-hexadecylpyrimidin-5-ol-d6]",72 to 73
2,"CCCCCCCCCCCCCCCCc1nc(N2CCCCC2)nc(OC2CCC2)c1O [Compound 15, 4-Cyclobutoxy-2-(piperidin-1-yl)-6-hexadecylpyrimidin-5-ol]",78 to 79
3,"CCCCCCCCCCCCCCCCc1nc(N2CCCC2)nc(OC2CCC2)c1O [Compound 14, 4-Cyclobutoxy-2-(pyrrolidin-1-yl)-6-hexadecylpyrimidin-5-ol]",74 to 76

# Experiment: Bioavailability in a mouse model (blood level after oral gavage)
# Format: in vivo
# Conditions: whole blood, 100 mg/kg oral gavage in olive oil, blood sample 6 h after gavage, quantified by HPLC
# Method: Bioavailability is an important characteristic of many therapeutic agents. Accordingly, certain compounds disclosed herein were tested for bioavailability in a mouse model.
# The test compound was prepared on the day of dose administration by dissolving the appropriate amount of test article in olive oil to reach the proper concentrations.
# The dose of 100 mg/kg body weight (total volume of administration was <120 μL) was used for testing. For example, a mouse whose body weight is 20 g would need 2 mg of test article in oral gavage. Mice were food deprived overnight. On the experimental day, mice were weighed to obtain dosage information before oral gavage was performed. Blood and brain samples were collected at the desired post-dose time points after oral gavage. Brain samples were perfused to exclude blood as a factor in the analysis of bioavailability.
row,concentration at 6 h [µM],Structure (SMILES)
1,~4,"CCCCCCCCCCCCCCCCc1nc(N2CCC2)nc(OC2CCC2)c1O [Compound 12, 2-(Azetidin-1-yl)-4-cyclobutanoxy-6-hexadecylpyrimidin-5-ol]"
